The text below walks through data of ChEMBL document CHEMBL1201862, “PubChem BioAssay data set” (2004).

SMILES strings stand for the structures.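 48-hour exposure; five concentrations; linearly interpolated endpoints. GI50 marks 50% less growth.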 The source made the active and inactive calls. No stated cut-off is given here; in the data, active = GI50 up to about 1.1 µM and inactive = higher.

Test systems include ACHN; CAKI-1; COLO 205; DU-145; HCT-15; HOP-62; K562; MDA-MB-231; MDA-MB-435; Malme-3M; NCI-H460; NCI-H522; OVCAR-3; SK-MEL-2; SK-MEL-5; SK-OV-3; SNB-19; SW-620; TK-10; RXF 393.
Common to all, as to assay: growth of human tumour cells (NCI), 48 h

For `O=[N+]([O-])c1ccc(/N=N\c2c(O)c(S(=O)(=O)O)cc3cc(S(=O)(=O)O)ccc23)cc1`, the GI50 was > 100 µM (inactive) with ACHN; > 100 µM (inactive) in the assay with CAKI-1; > 100 µM (inactive) with COLO 205; > 100 µM (inactive) in the assay with DU-145; over 100 µM in the assay on HCT-15; 88.5 µM (inactive) with HOP-62. The GI50 in the assay with K562, with MDA-MB-231, with MDA-MB-435, in the assay with Malme-3M, with NCI-H460 and in the assay with NCI-H522 was > 100 µM (inactive) throughout. In addition, the GI50 with OVCAR-3 is 27 µM (inactive); in the assay on SK-MEL-2, > 100 µM (inactive); in the assay with SK-MEL-5, > 100 µM (inactive); in the assay on SK-OV-3 it was > 100 µM (inactive); with SNB-19 it was > 100 µM (inactive); in the assay with SW-620, > 100 µM (inactive). In addition, the GI50 with TK-10 was > 100 µM (inactive).
As for `CSC(SC)=C(C#N)C(=O)Nc1ccc(Cl)cc1`, the GI50 in the assay with CAKI-1 was 22 µM (inactive); with COLO 205 it was 18.3 µM (inactive); in the assay on DU-145, 74.6 µM (inactive); in the assay on HCT-15, 33.2 µM; in the assay on K562 it was 25.9 µM (inactive); in the assay with MDA-MB-231 it was > 100 µM (inactive). Moreover, the GI50 was 69.2 µM (inactive) with MDA-MB-435; 27.1 µM (inactive) with Malme-3M; > 100 µM (inactive) with NCI-H460; > 100 µM (inactive) in the assay with OVCAR-3; 19.8 µM (inactive) in the assay on RXF 393; > 100 µM (inactive) in the assay on SK-MEL-2. For the same compound, the GI50 in the assay on SK-MEL-5 is 51.6 µM (inactive); with SK-OV-3 it was > 100 µM (inactive); with SNB-19, 68.1 µM (inactive); in the assay with SW-620 it was 44.1 µM (inactive); with TK-10 it was 23.8 µM (inactive).
With `CCOC(=O)c1cc2cc(Cc3ccc4[nH]c(C(=O)OCC)cc4c3)ccc2[nH]1`, the GI50 in the assay on ACHN was 14.5 µM (inactive); in the assay with CAKI-1, 12 µM (inactive); in the assay on COLO 205, 47.3 µM (inactive); in the assay on DU-145, 31.3 µM (inactive); with HCT-15, over 100 µM; in the assay on HOP-62 it was 5.14 µM (inactive). The GI50 with K562 was 21.9 µM (inactive); with MDA-MB-231, 15.5 µM (inactive); in the assay on MDA-MB-435, 27.2 µM (inactive); in the assay with Malme-3M, 37.1 µM (inactive); with NCI-H460, 24.1 µM (inactive); with OVCAR-3 it was 73.6 µM (inactive). For the same compound, the GI50 was 9.18 µM (inactive) in the assay with RXF 393; 26.7 µM (inactive) with SK-MEL-2; 13.6 µM (inactive) with SK-OV-3; 13 µM (inactive) with SNB-19; 63.5 µM (inactive) in the assay on SW-620; 13.9 µM (inactive) with TK-10.
In the case of `CN(/N=C/c1ccc(C(=O)O)cc1)C1=NCCCCN1`, the GI50 in the assay with ACHN was > 100 µM (inactive); in the assay with CAKI-1, > 100 µM (inactive); with COLO 205 it was > 100 µM (inactive); in the assay with DU-145 it was > 100 µM (inactive); with HCT-15, over 100 µM; in the assay on HOP-62, > 100 µM (inactive). The GI50 in the assay on K562, with MDA-MB-231, with MDA-MB-435, in the assay with Malme-3M, in the assay with NCI-H460 and in the assay with NCI-H522 was > 100 µM (inactive) throughout. Also, the GI50 with OVCAR-3, in the assay on SK-MEL-5, in the assay with SK-OV-3 and with SNB-19 was > 100 µM (inactive) throughout.
`CC1CC[C@@H](C(C)C)[C@H](Oc2nnc(C3OC(CO)C(O)C3O)o2)C1` (some centres undefined): the GI50 was > 100 µM (inactive) in the assay with ACHN; > 100 µM (inactive) in the assay with CAKI-1; > 100 µM (inactive) with COLO 205; > 100 µM (inactive) in the assay on DU-145; over 100 µM in the assay with HCT-15; > 100 µM (inactive) in the assay on HOP-62. Also, the GI50 with K562, in the assay on MDA-MB-231, in the assay on MDA-MB-435, with Malme-3M, with NCI-H460 and in the assay with OVCAR-3 was > 100 µM (inactive) each time. The GI50 with RXF 393, in the assay on SK-MEL-2, with SK-MEL-5, in the assay with SK-OV-3, with SNB-19 and in the assay with SW-620 was > 100 µM (inactive) each time. Besides, the GI50 with TK-10 is > 100 µM (inactive).
For the compound `COc1ccc(C(=O)/C=C/c2ccc(OCCCCCCCCCCOc3ccc(/C=C/C(=O)c4ccc(OC)c(OC)c4)cc3)cc2)c(OC)c1`, the GI50 is > 100 µM (inactive) in the assay on ACHN; > 100 µM (inactive) in the assay on CAKI-1; > 100 µM (inactive) in the assay with COLO 205; > 100 µM (inactive) with DU-145; over 100 µM with HCT-15; > 100 µM (inactive) with HOP-62. The GI50 in the assay on K562, with MDA-MB-231, in the assay on MDA-MB-435, with NCI-H460, in the assay with RXF 393 and in the assay with SK-MEL-2 was > 100 µM (inactive) throughout. Also, the GI50 with SK-MEL-5, in the assay with SK-OV-3, in the assay with SNB-19, with SW-620 and with TK-10 was > 100 µM (inactive) each time.
Regarding `COC(=O)c1c(O)ccc2c1c1c(n2Cc2ccccc2OC)C(=O)c2ccccc2C1`, the GI50 in the assay with CAKI-1 is 65.3 µM (inactive); in the assay on COLO 205, 15.5 µM (inactive); in the assay with DU-145, > 100 µM (inactive); in the assay with HCT-15 it was 63.4 µM; with HOP-62, 75.5 µM (inactive); in the assay with K562, 70.5 µM (inactive). Also, the GI50 in the assay on MDA-MB-231 is 44.1 µM (inactive); with MDA-MB-435, 45.3 µM (inactive); with Malme-3M, > 100 µM (inactive); with NCI-H460, 29 µM (inactive); with OVCAR-3 it was 88.7 µM (inactive); with RXF 393, 26.5 µM (inactive). Also, the GI50 was 87.5 µM (inactive) in the assay with SK-MEL-2; 55.6 µM (inactive) with SK-MEL-5; 78.5 µM (inactive) in the assay with SK-OV-3; > 100 µM (inactive) in the assay on SNB-19; 81.1 µM (inactive) in the assay on SW-620; > 100 µM (inactive) in the assay with TK-10.
Consider `O=P(c1ccccc1)(c1ccccc1)c1ccc2c(c1)OCCOCCOCCOCCO2`, for which the GI50 is > 100 µM (inactive) in the assay with ACHN; > 100 µM (inactive) with CAKI-1; > 100 µM (inactive) in the assay on COLO 205; > 100 µM (inactive) in the assay with DU-145; over 100 µM in the assay with HCT-15; > 100 µM (inactive) with HOP-62. The GI50 with K562, in the assay on MDA-MB-231, in the assay with MDA-MB-435, with Malme-3M, in the assay with NCI-H460 and with NCI-H522 was > 100 µM (inactive) throughout. Further, the GI50 in the assay on SK-MEL-5, in the assay on SK-OV-3, with SNB-19, with SW-620 and with TK-10 was > 100 µM (inactive) throughout.
As for `Cc1occc1/C(S)=N\c1ccc(Cl)c(C(=O)OCC2CC2)c1`, the GI50 in the assay on ACHN was 34.5 µM (inactive); with CAKI-1 it was 5.81 µM (inactive); in the assay with COLO 205, 26.7 µM (inactive); with DU-145 it was 73.3 µM (inactive); in the assay on HCT-15, 31.5 µM; in the assay on K562 it was 18.8 µM (inactive). The GI50 in the assay on MDA-MB-231 was 37.8 µM (inactive); in the assay on MDA-MB-435 it was 75.3 µM (inactive); with Malme-3M, 88.5 µM (inactive); in the assay on NCI-H460 it was 57.9 µM (inactive); with NCI-H522, 21.9 µM (inactive); in the assay with OVCAR-3, 52.2 µM (inactive). In addition, the GI50 was 47.4 µM (inactive) in the assay on SK-MEL-2; 41.2 µM (inactive) with SK-MEL-5; 35.6 µM (inactive) in the assay with SK-OV-3; 54.2 µM (inactive) with SNB-19; 54.7 µM (inactive) with SW-620; 34.8 µM (inactive) in the assay on TK-10.
For `C=C(CCC(C(=O)O)C1CCC2(C)C3=C(CCC12C)C1(C)CCC(O)C(C)(C)C1CC3)C(C)C` (centres undefined), the GI50 was 44.7 µM (inactive) in the assay on ACHN; > 100 µM (inactive) in the assay with CAKI-1; > 100 µM (inactive) in the assay on COLO 205; > 100 µM (inactive) in the assay on DU-145; 21.8 µM in the assay with HCT-15; 8.91 µM (inactive) in the assay with HOP-62. For the same compound, the GI50 is 14.2 µM (inactive) with K562; 71 µM (inactive) in the assay on MDA-MB-231; > 100 µM (inactive) with MDA-MB-435; 21.1 µM (inactive) in the assay on NCI-H460; 16.6 µM (inactive) in the assay with NCI-H522; 45.6 µM (inactive) in the assay with OVCAR-3. The GI50 is 52 µM (inactive) with SK-MEL-2; 33.7 µM (inactive) in the assay with SK-MEL-5; > 100 µM (inactive) in the assay with SK-OV-3; > 100 µM (inactive) with SNB-19; 50.9 µM (inactive) with SW-620; > 100 µM (inactive) in the assay with TK-10.
As to `CCOC(=O)c1c(C)[n+]([O-])c2cc(Cl)c(Cl)cc2[n+]1[O-]`, the GI50 in the assay on ACHN was 29.3 µM (inactive); in the assay with CAKI-1, 18 µM (inactive); with COLO 205 it was 19.7 µM (inactive); in the assay on DU-145 it was 16.6 µM (inactive); in the assay on HCT-15 it was 14.3 µM; with HOP-62, 21 µM (inactive). Moreover, the GI50 in the assay on K562 was 31.4 µM (inactive); in the assay with MDA-MB-231, 21.1 µM (inactive); in the assay with MDA-MB-435 it was 18.6 µM (inactive); in the assay with NCI-H460, 16.3 µM (inactive); with OVCAR-3, 15.6 µM (inactive); in the assay with RXF 393, 17.2 µM (inactive). Moreover, the GI50 in the assay with SK-MEL-2 is 23.3 µM (inactive); in the assay on SK-MEL-5, 16.7 µM (inactive); in the assay with SK-OV-3, 26.7 µM (inactive); in the assay on SNB-19 it was 36.8 µM (inactive); in the assay on TK-10 it was 18.1 µM (inactive).
